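The concentration for 50% growth inhibition is given as GI50. TGI is the concentration that stops growth completely.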
Assays:
Experiment in all cases: NCI-60 cell line screen, 384-well format
[1] = test system: EKVX NSCLC
[2] = test system: HT29 colon
[3] = test system: RXF 393 renal
[4] = test system: SNB-75 CNS
[5] = test system: A549 NSCLC
[6] = test system: NCI-H23 lung
[7] = test system: SK-MEL-28 melanoma
[8] = test system: DU-145 prostate
[9] = test system: CCRF-CEM leukemia
[10] = test system: HL-60(TB) leukemia
[11] = test system: A498 renal
[12] = test system: HCT-116 colon
[13] = test system: BT-549 breast
[14] = test system: COLO 205 colon
[15] = test system: RPMI-8226 leukemia
[16] = test system: SW-620 colon
[17] = test system: HOP-92 NSCLC
[18] = test system: OVCAR-3 ovarian
[19] = test system: SK-MEL-5 melanoma
[20] = test system: MALME-3M melanoma
[21] = test system: LOX IMVI melanoma
[22] = test system: MDA-MB-231 breast
[23] = test system: NCI-H226 lung
[24] = test system: SF-539 CNS
[25] = test system: MCF7 breast
[26] = test system: SNB-19 CNS
[27] = test system: SK-OV-3 ovarian
[28] = test system: HCC-2998 colon
[29] = test system: SF-268 CNS
[30] = test system: HS 578T breast
[31] = test system: OVCAR-4 ovarian
[32] = test system: UO-31 renal
[33] = test system: MOLT-4 leukemia
[34] = test system: SF-295 CNS
[35] = test system: K-562 leukemia
[36] = test system: SN12C renal
[37] = test system: M14 melanoma
[38] = test system: TK-10 renal
[39] = test system: MDA-MB-435 melanoma
[40] = test system: SR leukemia
[41] = test system: PC-3 prostate
[42] = test system: OVCAR-8 ovarian
[43] = test system: UACC-257 melanoma
[44] = test system: MDA-MB-468 breast
[45] = test system: CAKI-1 renal
[46] = test system: ACHN renal
[47] = test system: UACC-62 melanoma
[48] = test system: IGROV1 ovarian
[49] = test system: NCI-H522 lung
[50] = test system: T-47D breast
[51] = test system: NCI/ADR-RES ovarian
[52] = test system: NCI-H322M lung
[53] = test system: U251 glioblastoma
[54] = test system: HOP-62 NSCLC
[55] = test system: 786-0 renal
[56] = test system: NCI-H460 NSCLC

In the case of `C[C@@H]1COCCN1c1cc(-c2ccnn2C)c2ccnc(-c3ccn[nH]3)c2n1`, the GI50 [1] is reported as 124 nM, the TGI [1] is reported as 2480 nM and the GI50 [2] is reported as 234 nM. The TGI [2] was 706 nM, the GI50 [3] was 27.7 nM and the TGI [3] was 105 nM. For the same molecule, the GI50 [4] was 264 nM, the TGI [4] was 1760 nM and the GI50 [5] was 104 nM. For the same molecule, the TGI [5] was 2230 nM, the GI50 [6] was 16.2 nM and the TGI [6] was 56.3 nM. For the same molecule, the GI50 [7] was 1030 nM, the TGI [7] was 13.9 µM and the GI50 [8] was 53 nM. It also gave a TGI [8] of 16.3 µM, a GI50 [9] of less than 10 nM and a TGI [9] of 21.5 nM. It also gave a GI50 [10] of 26.8 nM, a TGI [10] of 83.9 nM and a GI50 [11] of 19.3 nM. It also gave a TGI [11] of 67.7 nM, a GI50 [12] of 32.9 nM and a TGI [12] of 7.97 µM. The GI50 [13] was 22.2 nM, the TGI [13] was 87.1 nM and the GI50 [14] was 286 nM. It also gave a TGI [14] of 2580 nM, a GI50 [15] of 17.4 nM and a TGI [15] of 45.2 nM. The GI50 [16] was 247 nM, the TGI [16] was 19.3 µM and the GI50 [17] was 36.2 nM. For the same molecule, the TGI [17] was 339 nM, the GI50 [18] was 91.1 nM and the TGI [18] was 2620 nM. It also gave a GI50 [19] of 202 nM, a TGI [19] of 873 nM and a GI50 [20] of 89.6 nM. The TGI [20] was 985 nM, the GI50 [21] was 98.4 nM and the TGI [21] was 1090 nM. For the same molecule, the GI50 [22] was 353 nM, the TGI [22] was greater than 100 µM and the GI50 [23] was 341 nM. For the same molecule, the TGI [23] was 4.02 µM, the GI50 [24] was 43.2 nM and the TGI [24] was 259 nM. For the same molecule, the GI50 [25] was 18.8 nM, the TGI [25] was 14.2 µM and the GI50 [26] was 282 nM. For the same molecule, the TGI [26] was 9.47 µM, the GI50 [27] was 63.5 nM and the TGI [27] was 539 nM. It also gave a GI50 [28] of less than 10 nM, a TGI [28] of 18 nM and a GI50 [29] of 97.4 nM. For the same molecule, the TGI [29] was 10.5 µM, the GI50 [30] was 16.7 nM and the TGI [30] was 46.5 nM. For the same molecule, the GI50 [31] was 39 nM, the TGI [31] was 2720 nM and the GI50 [32] was 58.6 nM. The TGI [32] was 828 nM, the GI50 [33] was less than 10 nM and the TGI [33] was 15.5 nM. For the same molecule, the GI50 [34] was 36.9 nM, the TGI [34] was 173 nM and the GI50 [35] was 40.4 nM. It also gave a TGI [35] of 125 nM, a GI50 [36] of 273 nM and a TGI [36] of 6.65 µM. For the same molecule, the GI50 [37] was 13.2 nM, the TGI [37] was 41.5 nM and the GI50 [38] was 28.7 nM. For the same molecule, the TGI [38] was 94.1 nM, the GI50 [39] was 33 nM and the TGI [39] was 456 nM. For the same molecule, the GI50 [40] was less than 10 nM, the GI50 [41] was 262 nM and the TGI [41] was 11.8 µM. The GI50 [42] was 61.1 nM, the TGI [42] was 357 nM and the GI50 [43] was 1820 nM. The TGI [43] was 14 µM, the GI50 [44] was 192 nM and the TGI [44] was 973 nM. The GI50 [45] was 142 nM, the TGI [45] was 1800 nM and the GI50 [46] was 49.8 nM. The TGI [46] was 225 nM, the GI50 [47] was 176 nM and the TGI [47] was 2140 nM. For the same molecule, the GI50 [48] was 93.2 nM, the TGI [48] was 2490 nM and the GI50 [49] was 411 nM. The TGI [49] was 10.7 µM, the GI50 [50] was 389 nM and the TGI [50] was 8.1 µM. It also gave a GI50 [51] of 72 nM, a TGI [51] of 270 nM and a GI50 [52] of 21.7 nM. It also gave a TGI [52] of 213 nM, a GI50 [53] of 123 nM and a TGI [53] of 11.9 µM. It also gave a GI50 [54] of 28 nM, a TGI [54] of 155 nM and a GI50 [55] of 37.3 nM. For the same molecule, the TGI [55] was 191 nM, the GI50 [56] was 10.6 nM and the TGI [56] was 515 nM.

From PubChem BioAssay (NCI)
